Experimental data: patent publication US12023318B2, “Therapy for Inflammatory Linear Verrucous Epidermal Nevus (ILVEN)” (UCL Business Ltd, priority 2018, dated 2024)

System: Inflammatory Linear Verrucous Epidermal Nevus (ILVEN)
Experiment: Topical cholesterol/simvastatin treatment of patients with ILVEN
Type: in vivo, human
Conditions: patient 9, localised ILVEN left arm; tried after no response to cholesterol/simvastatin
Excerpt: Fourteen patients with ILVEN were recruited. Photographs were taken of all cases as a baseline. DNA was extracted directly from lymphocytes and from affected skin biopsy without culture, using standard methods. Where possible a second skin biopsy of affected skin was also obtained for primary keratinocyte culture and immortalization with HPV to establish a stable cell line. In a minority of cases a skin biopsy of normal skin was also taken for keratinocyte culture and immortalization. Histopathology of affected skin was obtained in all cases. Thirteen of the fourteen patients were treated with […]/2% simvastatin in Unguentum Merck, applied topically twice a day for a minimum period of three months in the first instance, and only applied to one designated area of affected skin, using the rest of the skin as an internal control. If there was no response in this time the treatment was stopped. Where there was a positive response the treatment has been continued, and extended gradually to different body areas.

## CC(C)CCC[C@@H](C)[C@H]1CC[C@H]2[C@@H]3CC=C4C[C@@H](O)CC[C@]4(C)[C@H]3CC[C@]12C [cholesterol, Cholesterol]
  Response to cholesterol only: no
